Source: article PMC10165273, “Itch receptor MRGPRX4 interacts with the receptor activity–modifying proteins” (The Journal of Biological Chemistry, 2023)
Values joined by “and” are separate entries in the source; they are usually repeats but may differ in a detail not shown here. Equal values may be shown once. Read-outs that look alike come from different tables or passages of the source.

Key:
MRGPRX4 + RAMP3 = target: T1, MRGPRX4 + RAMP3 (Homo sapiens, UniProt Q96LA9); experiment: IP1 accumulation, MRGPRX4 coexpressed with RAMP3; format: cell-based; design: key to IP1 Basal / response to agonist, X4:ramp3.I:0.25 / response to agonist, X4:ramp3.I:0.5 / response to agonist, X4:ramp3.I:1: % IP1; unstimulated mock = 0%, fully stimulated MRGPRX4 = 100%; conditions: for activation at 100 µM / activation at 20 µM / activation at 4 µM / activation at 0.8 µM / activation at […] / activation at 0.032 µM: 2 h, Fig S3f, read-out: IP1 accumulation; for activation at 100 µM: log [DCA] (M) -4; for activation at 20 µM: log [DCA] (M) -4.69897; for activation at 4 µM: log [DCA] (M) -5.39794; for activation at 0.8 µM: log [DCA] (M) -6.09691; for activation at […]: log [DCA] (M) -6.79588; for activation at 0.032 µM: log [DCA] (M) -7.49485; for response to agonist, X4:ramp3.I:0.25 / response to agonist, X4:ramp3.I:0.5 / response to agonist, X4:ramp3.I:1: Figure 4c-f, agonist 100µM, MRGPRX4 = 100; for response to agonist, X4:ramp3.I:0.25: X4:ramp3 1:0.25; for response to agonist, X4:ramp3.I:0.5: X4:ramp3 1:0.5; for response to agonist, X4:ramp3.I:1: X4:ramp3 1:1
T1 construct: expressed in transfected cells; host or cells: HEK293T
Protocol: (§1) HEK293T cells were transfected with 1 pg/cell of MRGPRX4 DNA, and the amount of DNA was kept constant at 2 pg/cell with pcDNA3.1(+) empty vector, unless otherwise specified. Twenty four hours after transfection, IP1 assay was performed as previously described ([51]). When applicable, cells were treated with 1 μM YM254890 (YM) or different concentrations of U73122 for 1 h prior to addition of agonist or buffer. After incubation for 2 h, HTRF reagents and IP1 calibration standards were added and incubated for 2 h in the dark at room temperature. Time-resolved fluorescence signals were read on the BioTek Synergy NEO-TRF Hybrid multi-mode reader (BioTek Instruments). All data were carried out in three independent experiments with three technical replicate each.
For RAMP DNA titration assay, HEK293T cells were cotransfected with a constant amount of 1 pg/cell of FLAG-MRGPRX4-GFP10-1D4 to which a serial dilution of 1, 0.75, 0.5, 0.25, or 0 pg/cell of each HA-RAMP-OLLAS was added. For a homogenous transfection of MRGPRX4, a master mix of MRGPRX4 DNA was made prior to addition of the RAMP DNA. […]
(§2) Data reduction, standard calibration, and transformation of HTRF data were performed as previously described ([51]). Normalized IP1 values were calculated relative to the unstimulated mock-transfected cells (set to 0%) and fully stimulated MRGPRX4 (alone if applicable) (set to 100%).

MRGPRX4 [1] = target: T2, MRGPRX4 (Homo sapiens, UniProt Q96LA9); experiment: BRET2 β-arrestin1 recruitment to MRGPRX4; format: cell-based; conditions: 100 μM agonist (Fig. 5A)
T2 construct: expressed in transfected cells; host or cells: HEK293T
Protocol: (§3) The method for homogenous transfection of β-Arrestin and BRET^2 assay of β-Arrestin recruitment has been described previously ([51]). […] BRET^2 measurements were taken on the BioTek Synergy NEO2 microplate reader.
(§4) For MRGPRX4 DNA titration assays, HEK293T cells were cotransfected with either β-Arrestin1 or β-Arrestin2 with increasing amounts of MRGPRX4 (0.5, 1, or 2 pg/cell).
(§5) The BRET ratio for each sample was determined by calculating the ratio of the light intensity emitted by the GFP10 (515 nm) (acceptor) over the light intensity emitted by the RLuc3 (395 nm) (donor). Net BRET^2 was determined by subtracting the basal BRET^2 (β-arrestin-RLuc3 only) signal from the BRET^2 signals. All BRET values were normalized to the MRGPRX4-only condition.

MRGPRX4 [2] = target: T2, MRGPRX4; experiment: BRET2 β-arrestin2 recruitment to MRGPRX4; format: cell-based; conditions: 100 μM agonist (Fig. 5B, C)
Source text: as §3, §4
To measure the time-course of β-Arrestin2 recruitment to MRGPRX4 and CALCRL, the transfection and general procedure described above was followed, with the modification that Prolume Purple was added first, followed by addition of the appropriate agonists ([51]).
as §5

[3] = tested on: mock-transfected HEK293T cells; experiment: IP1 accumulation, mock-transfected cells; format: cell-based, human; design: IP1 Basal / IP1 span / IP1 Emax / IP1 accumulation, dose-response (Figure 1a) / IP1 accumulation with YM (Figure 1c) / IP1 accumulation: unit not given here; conditions: for IP1 accumulation, dose-response (Figure 1a): pcDNA (mock), individual replicates; for IP1 accumulation: mock, Fig S3d-f
Protocol: as §1
Validation of CALCRL constructs was assayed by cotransfecting HEK293T cells with different tagged versions of CALCRL alone or with each RAMP and with the promiscuous Gqs5 Gq chimera protein, at a respective DNA ratio of 1:1:0.5. Gqs5 is an engineered Gq protein containing the last five amino acid residues of Gs, which allows Gs-coupled GPCRs to signal through Gq downstream signaling pathways ([55]). The homogenous transfection method described above was used for all DNA mixes. CALCRL:RAMP2:Gqs5-transfected cells served as positive control for RAMP functionality.
as §2

[4] = MRGPRX4 + RAMP3 0.25 pg (Fig. S3), normalized per agonist
[5] = MRGPRX4 + RAMP3 0.5 pg (Fig. S3), normalized per agonist
[6] = MRGPRX4 + RAMP3 1 pg (Fig. S3), normalized per agonist
[7] = MRGPRX4 + RAMP3 2 pg (Fig. S3), normalized per agonist
[8] = Mock, MRGPRX4 construct comparison (Fig. S4B,C-F)

T1 sequence (Q96LA9 whole entry): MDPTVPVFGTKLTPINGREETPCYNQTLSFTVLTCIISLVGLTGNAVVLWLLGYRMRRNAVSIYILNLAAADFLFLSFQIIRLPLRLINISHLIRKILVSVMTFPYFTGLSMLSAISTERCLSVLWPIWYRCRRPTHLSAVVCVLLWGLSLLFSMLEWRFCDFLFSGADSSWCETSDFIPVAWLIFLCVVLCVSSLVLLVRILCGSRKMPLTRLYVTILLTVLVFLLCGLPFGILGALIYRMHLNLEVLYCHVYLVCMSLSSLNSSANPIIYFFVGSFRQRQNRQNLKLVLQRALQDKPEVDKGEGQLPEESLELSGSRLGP
T2 sequence (Q96LA9 whole entry): as above

What does the source list for `C[C@H](CCC(=O)O)[C@H]1CC[C@H]2[C@@H]3CC[C@@H]4C[C@H](O)CC[C@]4(C)[C@H]3C[C@H](O)[C@]12C` [DCA, deoxycholic acid]?
activation at 100 µM (MRGPRX4 + RAMP3; ratio MRGPRX4:RAMP3 1:0.25): 92.7%; activation at 20 µM (MRGPRX4 + RAMP3; ratio MRGPRX4:RAMP3 1:0.25): 69.5%; activation at 4 µM (MRGPRX4 + RAMP3; ratio MRGPRX4:RAMP3 1:0.25): 48.4%; activation at 0.8 µM (MRGPRX4 + RAMP3; ratio MRGPRX4:RAMP3 1:0.25): 35.7%; activation at […] (MRGPRX4 + RAMP3; ratio MRGPRX4:RAMP3 1:0.25): 34.1%; activation at 0.032 µM (MRGPRX4 + RAMP3; ratio MRGPRX4:RAMP3 1:0.25): 31.5%; activation at 100 µM (MRGPRX4 + RAMP3; ratio MRGPRX4:RAMP3 1:0.5): 90.4%; activation at 20 µM (MRGPRX4 + RAMP3; ratio MRGPRX4:RAMP3 1:0.5): 53.8%; activation at 4 µM (MRGPRX4 + RAMP3; ratio MRGPRX4:RAMP3 1:0.5): 33.6%; activation at 0.8 µM (MRGPRX4 + RAMP3; ratio MRGPRX4:RAMP3 1:0.5): 22%; activation at […] (MRGPRX4 + RAMP3; ratio MRGPRX4:RAMP3 1:0.5): 21.2%; activation at 0.032 µM (MRGPRX4 + RAMP3; ratio MRGPRX4:RAMP3 1:0.5): 21.7%; activation at 100 µM (MRGPRX4 + RAMP3; ratio MRGPRX4:RAMP3 1:1): 97.9%; activation at 20 µM (MRGPRX4 + RAMP3; ratio MRGPRX4:RAMP3 1:1): 49.2%; activation at 4 µM (MRGPRX4 + RAMP3; ratio MRGPRX4:RAMP3 1:1): 28.3%; activation at 0.8 µM (MRGPRX4 + RAMP3; ratio MRGPRX4:RAMP3 1:1): 19.5%; activation at […] (MRGPRX4 + RAMP3; ratio MRGPRX4:RAMP3 1:1): 19.6%; activation at 0.032 µM (MRGPRX4 + RAMP3; ratio MRGPRX4:RAMP3 1:1): 18.9%; activation at 20 µM (MRGPRX4 + RAMP3; ratio MRGPRX4:RAMP3 1:2): 48.1%; activation at 4 µM (MRGPRX4 + RAMP3; ratio MRGPRX4:RAMP3 1:2): 23.1%; activation at […] (MRGPRX4 + RAMP3; ratio MRGPRX4:RAMP3 1:2): 16.8%; activation at 0.032 µM (MRGPRX4 + RAMP3; ratio MRGPRX4:RAMP3 1:2): 15.3%; Emax (MRGPRX4 + RAMP3; Figure 4a bottom, DNA ratio MRGPRX4:RAMP3 1:0.75, MRGPRX4 alone = 100, read-out: efficacy): 74.9%; response to agonist, X4:ramp3.I:0.25 (MRGPRX4 + RAMP3): 83.1455 and 78.9266; response to agonist, X4:ramp3.I:0.5 (MRGPRX4 + RAMP3): 72.4625 and 76.3406; response to agonist, X4:ramp3.I:1 (MRGPRX4 + RAMP3): 72.2618 and 56.5732; IP1 Basal (MRGPRX4 + RAMP3; [4]): 26.80; IP1 span (top minus basal of the concentration-response fit) (MRGPRX4 + RAMP3; [4]): 84.2%; Emax (MRGPRX4 + RAMP3; MRGPRX4 + RAMP3 0.25 pg (Fig. S3), normalized per agonist, read-out: IP1 Emax): 111%; IP1 Basal (MRGPRX4 + RAMP3; [5]): 21.60; IP1 span (top minus basal of the concentration-response fit) (MRGPRX4 + RAMP3; [5]): 78.8%; Emax (MRGPRX4 + RAMP3; MRGPRX4 + RAMP3 0.5 pg (Fig. S3), normalized per agonist, read-out: IP1 Emax): 100%; IP1 Basal (MRGPRX4 + RAMP3; [6]): 23.28; IP1 span (top minus basal of the concentration-response fit) (MRGPRX4 + RAMP3; [6]): 92.1%; Emax (MRGPRX4 + RAMP3; MRGPRX4 + RAMP3 1 pg (Fig. S3), normalized per agonist, read-out: IP1 Emax): 115%; IP1 Basal (MRGPRX4 + RAMP3; [7]): 14.52; IP1 span (top minus basal of the concentration-response fit) (MRGPRX4 + RAMP3; [7]): 85.8%; Emax (MRGPRX4 + RAMP3; MRGPRX4 + RAMP3 2 pg (Fig. S3), normalized per agonist, read-out: IP1 Emax): 100%; β-arrestin1 recruitment to MRGPRX4 (MRGPRX4 [1]): did not recruit β-arrestin1; β-arrestin2 recruitment to MRGPRX4 (MRGPRX4 [2]): did not observe any β-arrestin2 recruitment; Emax ([3]; Homo sapiens, HEK-293T, Mock, MRGPRX4 construct comparison (Fig. S4B,C-F)): 0.236%; IP1 Basal [3, 8]: 2.330; IP1 span [3, 8]: -2.094; IP1 accumulation, dose-response (Figure 1a) ([3]; log [agonist] (M) -4): 0.2103 and 0.3669 and 0.293 and -0.07837 and 0.1649 and -0.08879 and 0.2113 and -0.2385 and -0.6593 and -0.4375 and -0.5166 and -0.9554; IP1 accumulation, dose-response (Figure 1a) ([3]; log [agonist] (M) -4.95424): 0.553 and 0.2642 and 0.3806 and 0.3517 and 0.05455 and 0.247 and 0.3525 and -0.3352 and -0.4263 and -0.5038 and 0.5136 and -0.7508; IP1 accumulation, dose-response (Figure 1a) ([3]; log [agonist] (M) -5.90849): 0.1227 and 0.5487 and 0.6873 and 0.2386 and 0.02519 and 0.3705 and 0.5521 and -0.1483 and -0.4243 and -0.2808 and 0.06832 and -0.3071; IP1 accumulation, dose-response (Figure 1a) ([3]; log [agonist] (M) -6.86273): 0.3536 and 0.9227 and 0.8938 and 0.5392 and 0.2564 and 0.9514 and 0.9872 and 0.3929 and 0.5666 and 0.2655 and 0.4716 and 0.3728; IP1 accumulation ([3]; log [DCA] (M) -4): 1.182 and 0.9551 and 1.627; IP1 accumulation ([3]; log [DCA] (M) -5.39794): 0.3631 and 0.268 and 0.3023

For `C[C@H](CCC(=O)NCCS(=O)(=O)O)[C@H]1CC[C@H]2[C@@H]3CC[C@@H]4C[C@H](O)CC[C@]4(C)[C@H]3C[C@H](O)[C@]12C` [TDCA, Taurodeoxycholic acid], which “response to agonist, X4:ramp3.I:0.25” value (MRGPRX4 + RAMP3) is on record?
The value was 75.8743 and 69.8198.

And the “response to agonist, X4:ramp3.I:0.5” value (MRGPRX4 + RAMP3)?
The value was 71.1633 and 71.0507.

And the “response to agonist, X4:ramp3.I:1” value (MRGPRX4 + RAMP3)?
Its value is 68.5255 and 51.1881.

And the “IP1 accumulation, dose-response (Figure 1a)” value (“IP1 accumulation … (Figure 1a)” below) ([3]; log [agonist] (M) -4)?
Its value is 0.277 and 0.4314 and 0.7552 and 0.05214 and 0.8196 and 0.004346 and 0.07799 and 0.2082 and -0.7055 and 0.02887 and 0.02154 and -0.2702.

What about the “IP1 accumulation … (Figure 1a)” value ([3]; log [agonist] (M) -4.95424) of the same compound?
Its value is 0.666 and 0.2913 and 0.6803 and 0.05284 and 0.1544 and 0.254 and 0.03541 and -0.4236 and -0.5986 and 0.1648 and -0.7514 and -0.1187.

And the “IP1 accumulation … (Figure 1a)” value ([3]; log [agonist] (M) -5.90849)?
The value was 0.6055 and 0.3564 and 0.9177 and 0.421 and 0.4207 and 0.09062 and 0.2243 and -0.1271 and -0.5946 and 0.5044 and 0.1318 and -0.2093.

What about the “IP1 accumulation … (Figure 1a)” value ([3]; log [agonist] (M) -6.86273) of the same compound?
Its value is 0.7575 and 0.6878 and 1.269 and 0.5282 and 0.9623 and 0.4904 and 0.6445 and 0.2971 and -0.08157 and 1.2983 and 1.581 and 1.374.
